# System: primary mouse hepatocytes
# Experiment: Gene expression (Affymetrix Mouse Genome 430 2.0) in primary mouse hepatocytes, true vs false GTX, 24 h and 48 h
# Conditions: log2, corrected for vehicle control
structure (smiles),measurement,setting,value
"O=c1c(O)c(-c2ccc(O)c(O)c2)oc2cc(O)cc(O)c12 [Q, Quercetin]",Gene expression data AF000969 (Cadps2),24 h average,−0.5753
same,Gene expression data AF022072 (Grb10),24 h average,0.3385
same,Gene expression data AF065917 (Lif),24 h average,−0.1024
same,Gene expression data AF204959 (Cyp3a25 /// LOC622249),24 h average,−1.232
same,Gene expression data AF297615 (Ggta1),24 h average,0.8047
same,Gene expression data AI594683 (Dmn),24 h average,−0.2712
same,Gene expression data AI596632 (Ptprg /// LOC632664),24 h average,−0.456
same,Gene expression data AI987929 (Ndrg1),24 h average,1.663
same,Gene expression data AK004419 (Fbxl17),24 h average,−0.01537
same,Gene expression data AK005731 (1700007K13Rik),24 h average,0.6919
same,Gene expression data AK007766 (1810044A24Rik),24 h average,−0.04463
same,Gene expression data AK007854 (1810053B23Rik),24 h average,−0.9336
same,Gene expression data AK009736 (Gpr137b /// LOC664862 /// LOC673335),24 h average,1.171
same,Gene expression data AK010447 (Smyd3),24 h average,0.0701
same,Gene expression data AK014608 (4632434l11Rik),24 h average,0.03273
same,Gene expression data AK019979 (2610528E23Rik),24 h average,0.2502
same,Gene expression data AV095209 (Mthfd1l),24 h average,0.8331
same,Gene expression data AV141095 (1110033M05Rik),24 h average,0.2855
same,Gene expression data AV173571 (1700106N22Rik),24 h average,−0.2484
same,Gene expression data AV219418 (Ldhb),24 h average,−0.1808
same,Gene expression data AV223474 (Zdhhc14),24 h average,−0.2496
same,Gene expression data AV298304 (Homez),24 h average,0.2496
same,Gene expression data AV327248 (Zfp365 /// LOC674611),24 h average,0.3116
same,Gene expression data AV377066 (9130221J18Rik),24 h average,−0.4922
same,Gene expression data AW240761 (Tbc1d5),24 h average,−0.157
same,Gene expression data AW543460 (Pard3),24 h average,0.2437
same,Gene expression data AW543723,24 h average,0.4193
same,Gene expression data AW986246 (Maoa),24 h average,1.388
same,Gene expression data BB027848 (4732466D17Rik),24 h average,−1.304
same,Gene expression data BB043558 (9230114K14Rik),24 h average,0.3431
same,Gene expression data BB275142 (AW456874),24 h average,−0.5004
same,Gene expression data BB308836 (Ppm1l),24 h average,0.1666
same,Gene expression data BB318221 (Zdhhc14),24 h average,−0.1479
same,Gene expression data BB463610 (4632434l11Rik),24 h average,−0.1026
same,Gene expression data BB526605 (Mipol1),24 h average,0.09617
same,Gene expression data BB770528 (Rai2),24 h average,−0.3109
same,Gene expression data BB821363 (Scfd2),24 h average,−0.2338
same,Gene expression data BC004827 (Psat1),24 h average,0.9258
same,Gene expression data BC008626 (Icam1),24 h average,−0.3725
same,Gene expression data BC010462 (BC010462),24 h average,−0.5852
same,Gene expression data BC012247 (Dcxr),24 h average,−0.2845
same,Gene expression data BC012260 (Psmf1),24 h average,−0.1689
same,Gene expression data BC015270 (Hist2h3c2),24 h average,−0.3924
same,Gene expression data BC016073 (Cdkal1),24 h average,0.1993
same,Gene expression data BC016265 (Ube2e2),24 h average,0.1622
same,Gene expression data BC019882 (Acaa1b),24 h average,0.7124
same,Gene expression data BC025501 (Aaas),24 h average,0.4589
same,Gene expression data BC025837 (Sbk1),24 h average,−0.3383
same,Gene expression data BC025915 (Cova1),24 h average,0.3176
same,Gene expression data BC026422 (Tgm1),24 h average,0.28
same,Gene expression data BF719766 (Thyn1),24 h average,0.1596
same,Gene expression data BG065754 (Ccng1),24 h average,0.4829
same,Gene expression data BG066903 (Kif16b),24 h average,0.2506
same,Gene expression data BG069873 (Gnb1l),24 h average,0.007867
same,Gene expression data BG070887 (Gtdc1),24 h average,−0.2209
same,Gene expression data BG076151 (Ppm1d),24 h average,−0.1367
same,Gene expression data BG261907 (Large),24 h average,0.3964
same,Gene expression data BI651416 (Cdc42bpg),24 h average,0.2653
same,Gene expression data BI660702 (Ell3),24 h average,−0.05897
same,Gene expression data BM198879 (Ercc5),24 h average,0.1402
same,Gene expression data BM230508 (A030007D23Rik),24 h average,0.3449
same,Gene expression data NM_007987 (Fas),24 h average,0.1744
same,Gene expression data NM_008522 (Ltf),24 h average,−0.09593
same,Gene expression data NM_008576 (Abcc1),24 h average,1.2925
same,Gene expression data NM_011176 (St14),24 h average,0.5914
same,Gene expression data NM_011316 (Saa4),24 h average,−0.1314
same,Gene expression data NM_012006 (Acot1),24 h average,1.0762
same,Gene expression data NM_013866 (Zfp385),24 h average,0.06543
same,Gene expression data NM_018770 (Igsf4a),24 h average,0.4689
same,Gene expression data NM_021451 (Pmaip1),24 h average,−0.611
same,Gene expression data NM_025770 (Atg10),24 h average,0.2663
same,Gene expression data NM_028803 (Gbe1),24 h average,−0.2509
same,Gene expression data NM_030697 (Ankrd47),24 h average,1.3142
same,Gene expression data NM_053168 (Trim11),24 h average,−0.02257
same,Gene expression data NM_134188 (Acot2),24 h average,0.1275
same,Gene expression data Y15910 (Diap2),24 h average,−0.31
same,Gene expression AA561726 average,48 h,0.3473
same,Gene expression AF000969 average,48 h,0.6762
same,Gene expression AF022072 average,48 h,0.7799
same,Gene expression AF033112 average,48 h,0.02593
same,Gene expression AF055573 average,48 h,0.0039
same,Gene expression AF069954 average,48 h,−0.168
same,Gene expression AF297615 average,48 h,−0.02943
same,Gene expression AF335325 average,48 h,−0.3547
same,Gene expression AI594683 average,48 h,−0.1952
same,Gene expression AI747296 average,48 h,−0.1572
same,Gene expression AK005731 average,48 h,−0.8953
same,Gene expression AK007854 average,48 h,1.0645
same,Gene expression AK010447 average,48 h,−0.1277
same,Gene expression AK010738 average,48 h,0.03457
same,Gene expression AK014608 average,48 h,−0.3181
same,Gene expression AK017734 average,48 h,−0.2231
same,Gene expression AK018383 average,48 h,−0.06343
same,Gene expression AK019979 average,48 h,−0.6456
same,Gene expression AV095209 average,48 h,0.0573
same,Gene expression AV141095 average,48 h,−0.03573
same,Gene expression AV173869 average,48 h,−0.3593
same,Gene expression AV216768 average,48 h,0.4269
same,Gene expression AV219418 average,48 h,0.7223
same,Gene expression AV221299 average,48 h,0.3941
same,Gene expression AV246296 average,48 h,−0.449
same,Gene expression AV251625 average,48 h,−0.2405
same,Gene expression AV254764 average,48 h,−0.09113
same,Gene expression AV327248 average,48 h,−0.1842
same,Gene expression BB009155 average,48 h,−0.6448
same,Gene expression BB027848 average,48 h,−0.5634
same,Gene expression BB043558 average,48 h,0.03817
same,Gene expression BB046347 average,48 h,0.3747
same,Gene expression BB140436 average,48 h,0.455
same,Gene expression BB204486 average,48 h,0.3211
same,Gene expression BB223872 average,48 h,−0.2409
same,Gene expression BB246912 average,48 h,0.03943
same,Gene expression BB275142 average,48 h,−0.5307
same,Gene expression BB458460 average,48 h,−0.2505
same,Gene expression BB463610 average,48 h,−0.254
same,Gene expression BB730977 average,48 h,0.127
same,Gene expression BB743970 average,48 h,−0.1543
same,Gene expression BB770528 average,48 h,−0.5238
same,Gene expression BB781615 average,48 h,−0.3025
same,Gene expression BC003284 average,48 h,−0.3991
same,Gene expression BC004827 average,48 h,0.3832
same,Gene expression BC005552 average,48 h,0.365
same,Gene expression BC006713 average,48 h,0.1419
same,Gene expression BC010318 average,48 h,0.2274
same,Gene expression BC012247 average,48 h,0.1853
same,Gene expression BC012955 average,48 h,0.25
same,Gene expression BC013893 average,48 h,−0.5246
same,Gene expression BC017615 average,48 h,−0.2786
same,Gene expression BC019379 average,48 h,−0.03313
same,Gene expression BC019882 average,48 h,−0.02177
same,Gene expression BC021352 average,48 h,−1.143
same,Gene expression BC022148 average,48 h,0.2323
same,Gene expression BC025169 average,48 h,0.176
same,Gene expression BC026131 average,48 h,0.3886
same,Gene expression BC027026 average,48 h,0.3636
same,Gene expression BC027121 average,48 h,0.003767
same,Gene expression BC027185 average,48 h,−0.4317
same,Gene expression BE956581 average,48 h,0.1063
same,Gene expression BF719766 average,48 h,0.1683
same,Gene expression BG065754 average,48 h,−0.2692
same,Gene expression BG066491 average,48 h,−0.6278
same,Gene expression BG076151 average,48 h,−0.7006
same,Gene expression BG076333 average,48 h,0.2569
same,Gene expression BG797099 average,48 h,−0.3185
same,Gene expression BG967046 average,48 h,−0.2263
same,Gene expression BI651416 average,48 h,−0.4982
same,Gene expression BI966443 average,48 h,0.1621
same,Gene expression BM198879 average,48 h,−0.1382
same,Gene expression BM200015 average,48 h,−0.2469
same,Gene expression BM230508 average,48 h,−0.6707
same,Gene expression BM936480 average,48 h,0.1682
same,Gene expression BQ174991 average,48 h,0.5432
same,Gene expression L21027 average,48 h,0.4391
same,Gene expression NM_007556 average,48 h,0.4673
same,Gene expression NM_007980 average,48 h,1.051
same,Gene expression NM_007987 average,48 h,−0.07343
same,Gene expression NM_008522 average,48 h,−0.03917
same,Gene expression NM_008935 average,48 h,0.5881
same,Gene expression NM_009897 average,48 h,0.2468
same,Gene expression NM_011075 average,48 h,−0.8714
same,Gene expression NM_011176 average,48 h,−0.3579
same,Gene expression NM_011316 average,48 h,−0.2485
same,Gene expression NM_012006 average,48 h,0.7373
same,Gene expression NM_013642 average,48 h,0.7153
same,Gene expression NM_013738 average,48 h,−0.4434
same,Gene expression NM_013929 average,48 h,0.09257
same,Gene expression NM_018881 average,48 h,0.2667
same,Gene expression NM_019738 average,48 h,−0.7691
same,Gene expression NM_030697 average,48 h,0.08597
same,Gene expression NM_053122 average,48 h,−0.1158
same,Gene expression NM_134147 average,48 h,−0.2048
same,Gene expression NM_134188 average,48 h,0.5773
same,Gene expression X62701 average,48 h,0.8426

# From patent publication US20120122727A1, “IN VITRO METHOD FOR PREDICTING WHETHER A COMPOUND IS GENOTOXIC IN VIVO” (priority 2009, published 2012)
